Experiments:
α-Adrenergic receptor = α-Adrenergic receptor blocking activity, isolated rabbit aortic strip, norepinephrine as agonist; format: cell-based; details: contractile response
Protocol: α-Adrenergic receptor blocking activity is determined in vitro by performing cumulative dose-response experiments in the isolated rabbit aortic strip preparation using norepinephrine as the agonist. The contractile response of the rabbit strip preparation in the presence of logarithmically increasing concentrations of the compounds being tested are expressed as percent of the maximal attainable response. Relative antagonistic potency is expressed as a pA2 value.

β-Adrenergic receptor = target: T1, β-Adrenergic receptor (Cavia porcellus, UniProt H0W3H1); test: β-Adrenergic receptor blocking activity, isolated guinea pig atria, isoproterenol as agonist; format: cell-based; details: increase in rate, read-out: pA2 value (β-adrenergic receptor blocking activity) (converted)
T1 construct: isolated guinea pig atria preparation; from tissue; host or cells: isolated guinea pig atria
T1 sequence (H0W3H1 1-470): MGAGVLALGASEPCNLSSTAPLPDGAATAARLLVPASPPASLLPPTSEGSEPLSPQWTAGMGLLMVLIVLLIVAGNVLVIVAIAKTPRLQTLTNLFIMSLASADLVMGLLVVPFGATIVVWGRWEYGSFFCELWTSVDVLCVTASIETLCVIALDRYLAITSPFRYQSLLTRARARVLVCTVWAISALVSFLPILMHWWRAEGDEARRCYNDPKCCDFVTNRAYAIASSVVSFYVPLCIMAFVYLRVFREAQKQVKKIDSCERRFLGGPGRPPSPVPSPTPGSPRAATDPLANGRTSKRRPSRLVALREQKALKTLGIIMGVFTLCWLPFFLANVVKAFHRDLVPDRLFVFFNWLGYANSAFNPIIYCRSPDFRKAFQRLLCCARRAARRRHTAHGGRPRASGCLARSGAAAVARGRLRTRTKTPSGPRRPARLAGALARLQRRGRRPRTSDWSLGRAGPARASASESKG
Protocol: β-Adrenergic receptor blocking activity is determined in vitro by performing cumulative dose-response experiments in the isolated guinea pig atria preparation using isoproterenol as the agonist. The response (increase in rate) of the guinea pig atria preparation in the presence of logarithmically increasing concentrations of the compounds being tested are expressed as percent of the maximal attainable response. Relative antagonistic potency is expressed as a pA2 value, as defined above.

[1] = tested on: systolic blood pressure of spontaneously hypertensive rats (SHR); test: Antihypertensive activity in spontaneously hypertensive rats (SHR); format: in vivo, rat; details: SHR Okomoto-Aoki strain; oral dose of 50 mg/kg; one hour following administration
Protocol: Antihypertensive activity is determined in spontaneously hypertensive rats (SHR) of the Okomoto-Aoki strain. Systolic blood pressure of the SHR is measured from the caudal artery by means of an indirect method utilizing a photocell transducer/trail cuff occluder system. Time response relationships are determined for each compound following an oral dose of 50 mg/kg. Data are expressed as mm of Hg decrease from control values. Statistical significance is determined using a 2 tailed "t" test comparing drug treatment response values to those obtained from concurrent vehicle treated animals. Under these conditions the compound 5-[2-[(2,3-dihydro-1,4-benzodioxan-2-ylmethyl)amino]-1-hydroxyethyl]-2-hydroxybenzamide lowered blood pressure by 24 mm of Hg one hour following administration of the drug substance.

Question: Which “pA2 value (α-adrenergic receptor blocking activity)” value (α-Adrenergic receptor) does the source give for `NC(=O)c1cc(C(O)CNCC2COc3ccccc3O2)ccc1O` (stereo not drawn) [5-[2-[(2,3-dihydro-1,4-benzodioxan-2-ylmethyl)amino]-1-hydroxyethyl]-2-hydroxybenzamide] here?
Answer: The value was 6.20.

Question: What about the Kb (β-Adrenergic receptor) of the same compound?
Answer: Its Kb is 1450 nM.

Question: What about the “systolic blood pressure decrease from control values” [1] of the same compound?
Answer: The value was 24 mm of Hg.
